Holding throughout (assay): cAMP functional assay (HTRF) in HEK293 cells in presence of 0.1% casein
Holding throughout (format): cell-based
In general terms: In TR-FRET formats the signal depends on donor and acceptor labels being close together.

Assay [1] has as its target T1, human GLP-1 receptor (GLP-1R) (Homo sapiens, UniProt P43220).
T1 construct: expressed in transfected cells; host or cells: HEK293
The note with it: HEK293 cells expressing human GLP-1R, geometric mean, read-out: hGLP1R cAMP Rel EC50 nM (SEM, n).

Assay [2] has as its target T2, human glucagon receptor (GcgR) (Homo sapiens, UniProt P47871).
T2 construct: expressed in transfected cells; host or cells: HEK293
To be noted: HEK293 cells expressing human GcgR, geometric mean, read-out: hGcgR cAMP Rel EC50 nM (SEM, n).

Assay [3] concerns the target T3, human glucose-dependent insulinotropic peptide receptor (GIPR) (Homo sapiens, UniProt P48546).
T3 construct: expressed in transfected cells; host or cells: HEK293
T3 sequence (P48546 22-466): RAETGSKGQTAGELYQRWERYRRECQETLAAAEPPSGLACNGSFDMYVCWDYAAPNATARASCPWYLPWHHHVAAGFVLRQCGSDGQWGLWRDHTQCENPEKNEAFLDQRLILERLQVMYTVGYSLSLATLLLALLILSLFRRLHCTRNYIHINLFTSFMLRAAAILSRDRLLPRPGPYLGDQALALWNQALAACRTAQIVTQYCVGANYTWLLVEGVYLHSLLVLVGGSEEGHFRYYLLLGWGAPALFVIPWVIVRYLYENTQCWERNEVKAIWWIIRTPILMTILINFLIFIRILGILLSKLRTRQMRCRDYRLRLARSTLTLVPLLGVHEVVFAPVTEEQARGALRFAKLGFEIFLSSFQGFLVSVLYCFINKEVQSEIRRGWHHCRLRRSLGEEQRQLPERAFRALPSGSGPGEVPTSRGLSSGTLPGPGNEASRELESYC
The note with it: HEK293 cells expressing human GIPR, geometric mean, read-out: hGIPR cAMP Rel EC50 nM (SEM, n).

The source of these data is patent publication US12723063B2, “GIPR-agonist compounds” (Eli Lilly and Company, priority 2019, dated 2026).

Molecules are shown by their SMILES. *1 amine or outer side, *2 acyl side, *3 side chain or, on linkers, in order; H or OH if unused. Where a SMILES comes first, the peptide text is derived from it. Side-chain parts run from the residue outwards. [ ]: non-standard residue; d: D form. The star is where a group is joined. C20 diacid = O=C(O)CCCCCCCCCCCCCCCCCCC(=O)*; C18 diacid = O=C(O)CCCCCCCCCCCCCCCCC(=O)*; αMePhe(2-F) = C[C@](N)(Cc1ccccc1F)C(=O)O; γGlu = O=C(O)[C@H](CCC(=O)[*:2])N[*:1]; 4Pal = N[C@@H](Cc1ccncc1)C(=O)O; αMeL = CC(C)C[C@](C)(N)C(=O)O; Orn = NCCC[C@H](N)C(=O)O; AEEA = NCCOCCOCC(=O)O; Aib = CC(C)(N)C(=O)O

T1 sequence (P43220 24-463): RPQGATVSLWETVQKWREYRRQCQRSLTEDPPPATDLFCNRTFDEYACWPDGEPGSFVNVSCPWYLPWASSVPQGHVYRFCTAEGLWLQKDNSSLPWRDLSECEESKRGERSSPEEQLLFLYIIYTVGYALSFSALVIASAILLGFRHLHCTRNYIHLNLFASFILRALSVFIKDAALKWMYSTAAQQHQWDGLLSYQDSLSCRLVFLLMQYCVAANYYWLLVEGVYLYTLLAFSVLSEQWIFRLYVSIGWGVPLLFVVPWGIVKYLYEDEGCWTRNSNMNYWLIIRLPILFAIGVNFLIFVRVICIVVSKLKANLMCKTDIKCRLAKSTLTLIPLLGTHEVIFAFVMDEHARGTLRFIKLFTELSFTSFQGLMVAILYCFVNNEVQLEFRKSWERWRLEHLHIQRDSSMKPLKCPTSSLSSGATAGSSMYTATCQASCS
T2 sequence (P47871 26-477): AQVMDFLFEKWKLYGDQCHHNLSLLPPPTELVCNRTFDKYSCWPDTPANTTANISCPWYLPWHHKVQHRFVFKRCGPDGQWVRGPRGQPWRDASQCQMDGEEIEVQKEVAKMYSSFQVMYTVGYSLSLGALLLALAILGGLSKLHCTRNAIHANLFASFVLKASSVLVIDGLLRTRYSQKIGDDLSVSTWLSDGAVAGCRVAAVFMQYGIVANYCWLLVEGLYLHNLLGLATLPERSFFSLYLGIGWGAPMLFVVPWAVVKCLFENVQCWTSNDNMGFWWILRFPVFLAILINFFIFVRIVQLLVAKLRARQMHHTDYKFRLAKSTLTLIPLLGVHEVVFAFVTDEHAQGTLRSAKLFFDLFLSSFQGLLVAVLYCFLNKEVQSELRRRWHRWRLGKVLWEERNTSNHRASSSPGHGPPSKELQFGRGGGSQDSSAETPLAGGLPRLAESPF

The EC50 is the concentration giving half of the maximal effect. As to `CC[C@H](C)[C@H](NC(=O)[C@H](CO)NC(=O)[C@H](Cc1ccc(O)cc1)NC(=O)[C@H](CC(=O)O)NC(=O)[C@H](CO)NC(=O)[C@@H](NC(=O)[C@H](Cc1ccccc1)NC(=O)[C@@H](NC(=O)CNC(=O)[C@H](CCC(=O)O)NC(=O)[C@@H](C)NC(=O)[C@@H](N)Cc1ccc(O)cc1)[C@@H](C)O)[C@@H](C)CC)C(=O)N[C@@H](CC(C)C)C(=O)N[C@@H](CC(C)C)C(=O)N[C@@H](CC(=O)O)C(=O)N[C@@H](CCCCN)C(=O)N[C@@H](CCCCNC(=O)COCCOCCNC(=O)COCCOCCNC(=O)CC[C@H](NC(=O)CCCCCCCCCCCCCCCCCCC(=O)O)C(=O)O)C(=O)N[C@@H](Cc1c[nH]cn1)C(=O)N[C@@H](CCC(N)=O)C(=O)N[C@@H](CCC(N)=O)C(=O)N[C@@H](CC(=O)O)C(=O)N[C@@H](Cc1ccccc1)C(=O)N[C@H](C(=O)N[C@@H](CCC(=O)O)C(=O)N[C@@H](Cc1c[nH]c2ccccc12)C(=O)N[C@@H](CC(C)C)C(=O)N[C@@H](CC(C)C)C(=O)N[C@@H](C)C(=O)N[C@@H](CCC(N)=O)C(=O)NCC(=O)N1CCC[C@H]1C(=O)N[C@@H](CO)C(=O)N[C@@H](CO)C(=O)NCC(=O)N[C@@H](C)C(=O)N1CCC[C@H]1C(=O)N1CCC[C@H]1C(=O)N1CCC[C@H]1C(=O)N[C@@H](CO)C(N)=O)C(C)C` [Example 14] (H-Y[dA]EGTFISDYSILLDKK([AEEA-AEEA-γGlu-C20 diacid])HQQDFVEWLLAQGPSSGAPPPS-NH2), the EC50 in assay [1] is > 100 nM; in assay [2] it was > 5000 nM; in assay [3], 0.34 nM.

Take `CC[C@H](C)[C@H](NC(=O)[C@H](CO)NC(=O)[C@H](Cc1ccc(O)cc1)NC(=O)[C@H](CC(=O)O)NC(=O)[C@H](CO)NC(=O)[C@@H](NC(=O)[C@H](Cc1ccccc1)NC(=O)[C@@H](NC(=O)CNC(=O)[C@H](CCC(=O)O)NC(=O)[C@@H](C)NC(=O)[C@@H](N)Cc1ccc(O)cc1)[C@@H](C)O)[C@@H](C)CC)C(=O)N[C@@H](CC(C)C)C(=O)N[C@@H](CC(C)C)C(=O)N[C@@H](CC(=O)O)C(=O)N[C@@H](CCCCN)C(=O)N[C@@H](CCCCNC(=O)COCCOCCNC(=O)COCCOCCNC(=O)CC[C@H](NC(=O)CCCCCCCCCCCCCCCCCCC(=O)O)C(=O)O)C(=O)N[C@@H](Cc1c[nH]cn1)C(=O)N[C@@H](CCC(N)=O)C(=O)N[C@@H](CCC(N)=O)C(=O)N[C@@H](CC(=O)O)C(=O)N[C@@H](Cc1ccccc1)C(=O)N[C@H](C(=O)N[C@@H](CC(N)=O)C(=O)N[C@@H](Cc1ccc(O)cc1)C(=O)N[C@@H](CC(C)C)C(=O)N[C@@H](CC(C)C)C(=O)N[C@@H](C)C(=O)N[C@@H](CCC(N)=O)C(=O)NCC(=O)N1CCC[C@H]1C(=O)N[C@@H](CO)C(=O)N[C@@H](CO)C(=O)NCC(=O)N[C@@H](C)C(=O)N1CCC[C@H]1C(=O)N1CCC[C@H]1C(=O)N1CCC[C@H]1C(=O)N[C@@H](CO)C(N)=O)C(C)C` [Example 15] (H-Y[dA]EGTFISDYSILLDKK([AEEA-AEEA-γGlu-C20 diacid])HQQDFVNYLLAQGPSSGAPPPS-NH2): the figures for the EC50 in assay [1], in assay [2] and in assay [3] were > 100 nM, > 5000 nM and 0.282 nM, respectively.

`CC[C@H](C)[C@H](NC(=O)[C@H](CO)NC(=O)[C@H](Cc1ccc(O)cc1)NC(=O)[C@H](CC(=O)O)NC(=O)[C@H](CO)NC(=O)[C@@H](NC(=O)[C@](C)(Cc1ccccc1F)NC(=O)[C@@H](NC(=O)CNC(=O)[C@H](CCC(=O)O)NC(=O)C(C)(C)NC(=O)[C@@H](N)Cc1ccc(O)cc1)[C@@H](C)O)[C@@H](C)CC)C(=O)N[C@@H](C)C(=O)N[C@@H](CC(C)C)C(=O)N[C@@H](CC(=O)O)C(=O)N[C@@H](CCCCN)C(=O)N[C@H](C(=O)N[C@@H](Cc1c[nH]cn1)C(=O)N[C@@H](CCC(N)=O)C(=O)NC(C)(C)C(=O)N[C@@H](CC(=O)O)C(=O)N[C@@H](Cc1ccccc1)C(=O)N[C@H](C(=O)N[C@@H](CCC(=O)O)C(=O)N[C@@H](Cc1ccncc1)C(=O)N[C@@H](CCCCNC(=O)COCCOCCNC(=O)COCCOCCNC(=O)CC[C@H](NC(=O)CCCCCCCCCCCCCCCCCCC(=O)O)C(=O)O)C(=O)N[C@@H](CC(C)C)C(=O)N[C@@H](CCC(=O)O)C(=O)N[C@@H](CCC(N)=O)C(=O)NCC(=O)N1CCC[C@H]1C(=O)N[C@@H](CO)C(=O)N[C@@H](CO)C(=O)NCC(=O)N[C@@H](C)C(=O)N1CCC[C@H]1C(=O)N1CCC[C@H]1C(=O)N1CCC[C@H]1C(=O)N[C@@H](CO)C(N)=O)C(C)C)[C@@H](C)CC` [Example 114] (H-Y[Aib]EGT[αMePhe(2-F)]ISDYSIALDKIHQ[Aib]DFVE[4Pal]K([AEEA-AEEA-γGlu-C20 diacid])LEQGPSSGAPPPS-NH2): the EC50 was > 5000 nM in assay [1], > 5000 nM in assay [2] and 0.0075 nM in assay [3].

In the case of `CC[C@H](C)[C@H](NC(=O)[C@H](CO)NC(=O)[C@H](Cc1ccc(O)cc1)NC(=O)[C@H](CC(=O)O)NC(=O)[C@H](CO)NC(=O)[C@@H](NC(=O)[C@H](Cc1ccccc1)NC(=O)[C@@H](NC(=O)CNC(=O)[C@H](CCC(=O)O)NC(=O)[C@@H](C)NC(=O)[C@@H](N)Cc1ccc(O)cc1)[C@@H](C)O)[C@@H](C)CC)C(=O)N[C@@H](CC(C)C)C(=O)N[C@@H](CC(C)C)C(=O)N[C@@H](CC(=O)O)C(=O)N[C@@H](CCCCN)C(=O)N[C@@H](CCCCNC(=O)COCCOCCNC(=O)COCCOCCNC(=O)CC[C@H](NC(=O)CCCCCCCCCCCCCCCCC(=O)O)C(=O)O)C(=O)N[C@@H](C)C(=O)N[C@@H](CCC(N)=O)C(=O)NC(C)(C)C(=O)N[C@@H](CCC(=O)O)C(=O)N[C@@H](Cc1ccccc1)C(=O)N[C@H](C(=O)N[C@@H](CCC(N)=O)C(=O)N[C@@H](Cc1c[nH]c2ccccc12)C(=O)N[C@@H](CC(C)C)C(=O)N[C@@H](CC(C)C)C(=O)N[C@@H](C)C(=O)NCC(=O)NCC(=O)N1CCC[C@H]1C(=O)N[C@@H](CO)C(=O)N[C@@H](CO)C(=O)NCC(=O)N[C@@H](C)C(=O)N1CCC[C@H]1C(=O)N1CCC[C@H]1C(=O)N1CCC[C@H]1C(=O)N[C@@H](CO)C(N)=O)C(C)C` [Example 27] (H-Y[dA]EGTFISDYSILLDKK([AEEA-AEEA-γGlu-C18 diacid])AQ[Aib]EFVQWLLAGGPSSGAPPPS-NH2), the figures for the EC50 in assay [1], in assay [2] and in assay [3] were > 5000 nM, > 5000 nM and 0.0132 nM, respectively.

`CC[C@H](C)[C@H](NC(=O)[C@H](Cc1ccccc1)NC(=O)[C@@H](NC(=O)CNC(=O)[C@H](CCC(=O)O)NC(=O)C(C)(C)NC(=O)[C@@H](N)Cc1ccc(O)cc1)[C@@H](C)O)C(=O)N[C@@H](CO)C(=O)N[C@@H](CC(=O)O)C(=O)N[C@@H](Cc1ccc(O)cc1)C(=O)N[C@@H](CO)C(=O)N[C@H](C(=O)N[C@@](C)(CC(C)C)C(=O)N[C@@H](CC(C)C)C(=O)N[C@@H](CC(=O)O)C(=O)N[C@@H](CCCN)C(=O)N[C@@H](CCCCNC(=O)COCCOCCNC(=O)COCCOCCNC(=O)CC[C@H](NC(=O)CCCCCCCCCCCCCCCCCCC(=O)O)C(=O)O)C(=O)N[C@@H](Cc1c[nH]cn1)C(=O)N[C@@H](CCC(N)=O)C(=O)NC(C)(C)C(=O)N[C@@H](CC(=O)O)C(=O)N[C@@H](Cc1ccccc1)C(=O)N[C@H](C(=O)N[C@@H](CCC(=O)O)C(=O)N[C@@H](Cc1ccncc1)C(=O)N[C@@H](CC(C)C)C(=O)N[C@@H](CC(C)C)C(=O)N[C@@H](CCC(=O)O)C(=O)N[C@H](C(=O)NCC(=O)N1CCC[C@H]1C(=O)N[C@@H](CO)C(=O)N[C@@H](CO)C(=O)NCC(=O)N[C@@H](C)C(=O)N1CCC[C@H]1C(=O)N1CCC[C@H]1C(=O)N1CCC[C@H]1C(=O)N[C@@H](CO)C(N)=O)[C@@H](C)O)C(C)C)[C@@H](C)CC` [Example 80] (H-Y[Aib]EGTFISDYSI[αMeL]LD[Orn]K([AEEA-AEEA-γGlu-C20 diacid])HQ[Aib]DFVE[4Pal]LLETGPSSGAPPPS-NH2): the EC50 in assay [1] was > 5000 nM; in assay [2], > 5000 nM; in assay [3] it was 0.0777 nM.
